{"source": "patent US20060029548A1", "about": "“Methods of diagnosing, monitoring and treating pulmonary diseases” (priority 2004, published 2006)", "key": {"[1]": {"test_system": "human subjects (airway responsiveness, FEV1)", "test": "Inhalation challenge test: airway responsiveness measured as change in FEV1 (PD20)", "format": "in vivo", "settings": "for PD20 geometric mean: non-responders excluded; for PD20: individual subjects", "description": "The clinical study described in Examples 2-4 was randomized, double blind, crossover, and controlled. Each subject attended the laboratory on three occasions. Procedures on the initial screening visit included obtaining information about the study and a number of investigations in the following order: medical history, lung function, reversibility and skin prick testing. At visit 2 and 3, separated by 2-7 days, the subjects were subjected to either an ATP or AMP challenge in a randomized fashion such that, by the end of the study, each patient had been tested with both compounds. Before, immediately after, and 30 minutes after the challenge, lung function and Borg score for dyspnoea were determined, and symptoms other than dyspnoea were recorded.\nIn the clinical study described in Examples 2-4, spirometric tests were performed using a dry spirometer (Vitalograph Ltd., Buckingham, England) and the best value of the three expiratory manoeuvers was expressed as liters and percentage of the predicted.\nFor the tests described in Examples 2-4, ATP and AMP (Sigma, Gillingham, Dorset, England) were dissolved freshly in normal saline solution to produce a range of doubling concentrations from 0.227-929 umol/ml for ATP and from 0.138-1152 umol/ml for AMP and immediately used for bronchial challenge. The solutions were administered using a breath-activated dosimeter (Mefar, Bovezzo, Italy) with an output of 10 ul per inhalation [Prieto et al. (2003) Chest 123:993-997]. The subjects, while wearing a nose clip, inhaled (via a mouthpiece) five breaths of normal saline, followed by sequential doubling concentrations of either ATP or AMP from functional residual capacity to total lung capacity. FEV1 was measured from two minutes after the fifth inhalation of normal saline until there was a fall in FEV1 of ≧20% of its value recorded after saline inhalation or until maximal concentration of either ATP or AMP was inhaled. The provocative dose causing a 20% decrease in FEV1 (PD20) was calculated by interpolation of the logarithmic dose response curve.\nAll data from the analyses described in Examples 2-4 were performed with a software package (GraphPad Prism Software, Inc., USA). The significance of differences among groups was assessed by Student's t-test, and analysis of categorical variables was examined by Chi-square test. Pearson's correlation coefficient and linear regression analysis were used to analyze the relationship between the percentage decreases in FEV1 and Borg score. The PD20 values for ATP and AMP were logarithmically transformed to normalize their distribution and presented as geometric means. All other numerical variables were expressed as the mean±SEM and significance was defined as p<0.05."}, "[2]": {"test_system": "pulmonary RAR-containing afferent nerve fiber", "test": "Vagal activation experiments in dogs: action potentials in RAR-containing fibers", "format": "in vivo", "settings": "anesthetized dog", "method": "The experiments described in Example 5 were performed essentially as described in Pelleg et al. [(1996) J. Physiol. 490(1):265-275] and U.S. Pat. No. 5,874,420, both of which are incorporated herein by reference in their entirety. In brief, they were performed on anesthetized (sodium pentobarbitone, 30 mg kg^−1 plus 3 mg kg^−1 h^−1, intravenous) dogs artificially ventilated with room air using a respirator. Arterial blood pH, PO2, PCO2, body temperature were maintained as described in U.S. Pat. No. 5,874,420. A peripheral vein was cannulated for the administration of physiological saline solution and maintenance doses of anesthetic. Catheters were introduced via the femoral vein and left atrial appendage and positioned in the right atrium and left atrium for the administration of test solutions. The chest was opened by a longitudinal sternotomy. The right cervical vagosympathetic trunk was exposed by a midcervical longitudinal section of the skin and careful dissection of neck muscles and connective tissues. The edges of the cut skin were elevated and secured to create a trough which was filled with warm (about 37° C.) mineral oil. A section of the vagosympathetic trunk was placed on a small plate of black Perspex™ and fine branches were separated from the main bundle by careful dissection using microsurgical tools and a dissecting microscope (Model F212, Jenopik Jena, GmbH, Germany).\nExtracellular neural action potentials were recorded using a custom-made bipolar electrode that contained two platinum-iridium wires (1.25 cm×0.0125 cm) connected to a high-impedence first-stage differential amplifier (model AC8331, CW, Inc., Ardmore, Pa.) via a shielded cable. The output of the first-stage amplifier was fed into a second-stage differential amplifier (model BMA-831/C, CWE, Inc.). Isolated fibers were laid on the pair of platinum-iridium wires. Vagal C fibers with chemosensitive endings have a sparse irregular discharge which is not associated with cardiac or respiratory cycles. Confirmation of fiber type was obtained by: first monitoring the response to capsaicin (10 microg kg^−1, intra-right atrial bolus); second, monitoring the response to mechanical stimulation of the lungs using gentle probing with forceps as well as inflation of the lungs to 2-3 times the tidal volume; and third, determining the speed of conduction using a stimulating electrode positioned distal to the initial recording site. Nerve fibers with RAR on their pulmonary endings, spontaneously fire a brief (i.e., short lasting) volley of action potentials associated with peak tracheal pressure during each respiratory cycle.\n[…] Volume controls consisted of either 5 ml+5 ml or 1 ml+3 ml physiological saline. All injections were performed in the same mode by the same person. To exclude involvement of baroreceptors in the recorded neural activity, the latter was monitored before and after a bolus of nitroglycerine (1 mg; intravenous).\nThe procedure described in Example 1 was used to measure action potentials in dog pulmonary fibers with RAR on their terminals following administration of various agents. RAR activation generated a brief volley of action potentials associated with each respiratory cycle that was seen before as well as after administration of ATP (FIG. 7). […] Thus ATP modified the activity of the RAR-containing fiber manifested in their transient loss of the rapid adaptability characteristic."}}, "note": "Several values for one entry are separate records, joined by “and”; a condition that tells them apart may be missing. Equal entries are not always repeated. Entries after “also recorded” stand apart in the source; their conditions may differ."}
{"smiles": "Nc1ncnc2c1ncn2[C@@H]1O[C@H](COP(=O)(O)OP(=O)(O)OP(=O)(O)O)[C@@H](O)[C@H]1O", "note": "[ATP, adenosine 5′-triphosphate]", "values": [{"measurement": "patients with bronchoconstriction", "setting": "[1]; 19 smoking subjects (seven healthy smokers, seven smokers at risk, five COPD)", "value": 42, "unit": "%"}, {"measurement": "mean PD20", "setting": "[1]; ATP-responsive COPD patients", "value": 178.5, "unit": "µmol/mL"}, {"measurement": "PD20 geometric mean", "setting": "[1]; COPD (n = 7)", "value": 178.5, "unit": "µmol/mL"}, {"measurement": "patients who responded to challenge", "setting": "[1]; COPD patients", "value": 67, "unit": "%"}, {"measurement": "PD20 geometric mean (range)", "setting": "[1]; all subjects who had airway responsiveness", "value": "72.9 (2.9-808.7) umol/ml"}, {"measurement": "PD20 geometric mean", "setting": "[1]; asthma (n = 10)", "value": 48.7, "unit": "µmol/mL"}, {"measurement": "mean PD20", "setting": "[1]; asthma patients", "value": 48.7, "unit": "µmol/mL"}, {"measurement": "response to challenge", "setting": "[1]; healthy non-smokers, no change in FEV1 or reduction of less than 20%", "value": "negative"}, {"measurement": "control subjects who responded", "setting": "[1]; healthy smoker control subjects", "value": "three of seven"}, {"measurement": "subjects who responded to challenge", "setting": "[1]; healthy smokers", "value": 57, "unit": "%"}, {"measurement": "PD20 geometric mean", "setting": "[1]; healthy smokers (n = 7)", "value": 197.0, "unit": "µmol/mL"}, {"measurement": "PD20", "setting": "[1]; COPD (n = 7)", "value": "2.9 μmol/ml and >929 μmol/ml (2×) and 242.8 μmol/ml and 72.0 μmol/ml and 163.1 μmol/ml and 808.7 μmol/ml"}, {"measurement": "PD20", "setting": "[1]; asthma (n = 10)", "value": "44.8 µmol/mL and 23.6 µmol/mL and 20.9 µmol/mL and 67.9 µmol/mL and 92.2 µmol/mL and 160.6 µmol/mL and 18.1 µmol/mL and 28.1 µmol/mL and 137.0 µmol/mL and 49.0 µmol/mL"}, {"measurement": "PD20", "setting": "[1]; healthy smokers (n = 7)", "value": "303.4 μmol/ml and >929 μmol/ml (3×) and 70.2 μmol/ml and 442.4 μmol/ml and 159.9 μmol/ml"}, {"measurement": "PD20", "setting": "[1]; non-smokers (n = 10), provocative dose causing 20% decrease in FEV1", "value": ">929", "unit": "µmol/mL"}, {"measurement": "PD20", "setting": "[1]; smokers at risk (n = 7)", "value": ">929 μmol/ml (6×) and 52.8 μmol/ml"}, {"measurement": "PD20 geometric mean", "setting": "[1]; non-smokers (n = 10)", "value": ">929", "unit": "µmol/mL"}, {"measurement": "subjects responsive to challenge", "setting": "[1]; of the 40 subjects in the study", "value": 47.5, "unit": "%"}, {"measurement": "patients who responded to challenge", "setting": "[1]; patients with asthma", "value": 100, "unit": "%"}, {"measurement": "ΔFEV1 (decrease in FEV1 as percentage of baseline FEV1)", "setting": "[1]; patients with asthma", "value": 29, "unit": "%"}, {"measurement": "subjects who responded to challenge", "setting": "[1]; smokers at risk", "value": 14, "unit": "%"}, {"measurement": "PD20 geometric mean", "setting": "[1]; smokers at risk (n = 7)", "value": 52.8, "unit": "µmol/mL"}, {"measurement": "desensitization on repeated administrations", "setting": "[2]; RAR-containing fibers", "value": "not associated with desensitization"}, {"measurement": "effect on action potentials of RAR-containing fibers", "setting": "[2]; rapid bolus, ATP 6 μmol/kg, capsaicin 10 ug kg−1, analogs 0.75 umol kg−1", "value": "activity of RAR-containing fibers was prolonged; also recorded: stimulated both the C fibers and RAR-containing fibers"}]}
